Results on one substance are retold here after US8986733B2, “Materials and methods for nerve repair” (University of Florida Research Foundation, Inc., priority 2001, dated 2015).

Assay [1] concerns CSPG. Description: CSPG-neoepitope immunolabeling of injured sciatic nerve after in vivo injection. Further details: species or system rat. The note with it: single injection 1 U in 2 μl, 2 mm distal to injury; 4 days (transection) or 2 days (crush). As for the experimental part:
Surgical procedures for nerve transection and nerve crush experiments. All surgical procedures were performed according to Institutional Animal Care and Use Committee (IACUC) approved protocols. Young adult SPRAGUE DAWLEY rats (HARLAN Indianapolis, Ind.) were deeply anesthetized with xylazine (15 mg/kg, i.m.) followed by ketamine-HCl (110 mg/kg, i.p.). Six animals received bilateral nerve crush injuries. Sciatic nerves were exposed and then crushed with firm pressure for thirty seconds with a DUMONT #5 forceps at a site 4 mm distal to the tendon of the internal obdurator. The crush site was marked with an epineurial suture. In a separate set of experiments, eight rats received bilateral sciatic nerve transection injuries using serrated scissors. The proximal and distal stumps were […] by epineurial neurorrhaphy using 9-0 ETHILON sutures. Fibrin glue (fibrinogen and thrombin) was then applied to stabilize the union. In both injury models, the right sciatic nerves were injected 2-mm distal to the injury with chondroitinase ABC (1 U in 2 μl) (high-purity, protease-free; SIGMA CHEMICAL CO., St. Louis, Miss.). Left sciatic nerves (with the same injury as the right side) were injected with vehicle alone (0.1% bovine serum albumin in PBS). […]
(§1) Immunocytochemistry. Axonal regeneration was assessed by GAP-43 immunofluorescence and digital image analysis. […]

The test system of assay [2] is CSPG. Kind of assay: CSPG neoepitope (Ab1918) immunolabeling of acellular rat sciatic nerve segments treated en bloc. The class given is biochemical. The conditions noted are these: en bloc treatment 16 h.
Excerpt: Preparation of acellular nerve grafts treated with chondroitinase. Adult (180-200 g) female SPRAGUE DAWLEY rats (HARLAN, Indianapolis, Ind.) were used as nerve donors and recipient hosts. Donor rats were anesthetized with halothane and decapitated. Sciatic nerves were exposed through a gluteal muscle-splitting incision and isolated free of underlying fascia. A 15-mm nerve segment was excised rostral to the bifurcation into common peroneal and tibial nerves. The segments were rinsed with cold sterile Ringer's solution, stabilized by pinning the ends to a thin plastic support, and transferred to a cryogenic vial. The vials were submerged in liquid nitrogen for 2 minutes and then transferred to a 37° C. water bath for 2 minutes. This freeze/thaw cycle was repeated, yielding acellular nerve grafts that were then stored in liquid nitrogen. On the day before grafting, the nerve grafts were warmed to room temperature and incubated in 100 μl phosphate buffered saline pH 7.4 (PBS) containing 2 units/ml chondroitinase ABC (SIGMA, St. Louis, Mo.) or in PBS (vehicle) only for 16 hours at 37° C. The grafts were rinsed twice with Ringer's and kept on ice prior to use. […]
as §1

As to chondroitinase ABC, the “CSPG degradation in extracellular matrix around injection site” value in assay [1] was “substantially, if not completely, degraded CSPG”. Also, in assay [2], the “CSPG degradation (Ab1918 neoepitope immunostaining)” value is “thoroughly degraded CSPG side-chains”.
